Experimental data published in patent US11697648B2, “Fused pyrimidine pyridinone compounds as JAK inhibitors” (THERAVANCE BIOPHARMA R&D IP, LLC, priority 2019, dated 2023).

Assays:
JAK1 = JAK1 (Homo sapiens (Human), UniProt P23458); experiment: Biochemical JAK1 kinase assay (LanthaScreen)
Method in brief: (§1)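 GST-JAK + GFP-STAT1 peptide, HEPES pH 7.5/MgCl2/EGTA/Brij-35 buffer; cpd preincubation 1 h RT; ATP start, 1 h RT; stop with 10 mM EDTA + 2 nM Tb-anti-pSTAT1; TR-FRET 520/495. 4-parameter IC50 → pKi (Cheng-Prusoff).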

Tyk2 = Tyk2 (Homo sapiens (Human), UniProt P29597); experiment: Biochemical Tyk2 kinase assay (LanthaScreen)
Chain of Tyk2 (P29597 whole entry): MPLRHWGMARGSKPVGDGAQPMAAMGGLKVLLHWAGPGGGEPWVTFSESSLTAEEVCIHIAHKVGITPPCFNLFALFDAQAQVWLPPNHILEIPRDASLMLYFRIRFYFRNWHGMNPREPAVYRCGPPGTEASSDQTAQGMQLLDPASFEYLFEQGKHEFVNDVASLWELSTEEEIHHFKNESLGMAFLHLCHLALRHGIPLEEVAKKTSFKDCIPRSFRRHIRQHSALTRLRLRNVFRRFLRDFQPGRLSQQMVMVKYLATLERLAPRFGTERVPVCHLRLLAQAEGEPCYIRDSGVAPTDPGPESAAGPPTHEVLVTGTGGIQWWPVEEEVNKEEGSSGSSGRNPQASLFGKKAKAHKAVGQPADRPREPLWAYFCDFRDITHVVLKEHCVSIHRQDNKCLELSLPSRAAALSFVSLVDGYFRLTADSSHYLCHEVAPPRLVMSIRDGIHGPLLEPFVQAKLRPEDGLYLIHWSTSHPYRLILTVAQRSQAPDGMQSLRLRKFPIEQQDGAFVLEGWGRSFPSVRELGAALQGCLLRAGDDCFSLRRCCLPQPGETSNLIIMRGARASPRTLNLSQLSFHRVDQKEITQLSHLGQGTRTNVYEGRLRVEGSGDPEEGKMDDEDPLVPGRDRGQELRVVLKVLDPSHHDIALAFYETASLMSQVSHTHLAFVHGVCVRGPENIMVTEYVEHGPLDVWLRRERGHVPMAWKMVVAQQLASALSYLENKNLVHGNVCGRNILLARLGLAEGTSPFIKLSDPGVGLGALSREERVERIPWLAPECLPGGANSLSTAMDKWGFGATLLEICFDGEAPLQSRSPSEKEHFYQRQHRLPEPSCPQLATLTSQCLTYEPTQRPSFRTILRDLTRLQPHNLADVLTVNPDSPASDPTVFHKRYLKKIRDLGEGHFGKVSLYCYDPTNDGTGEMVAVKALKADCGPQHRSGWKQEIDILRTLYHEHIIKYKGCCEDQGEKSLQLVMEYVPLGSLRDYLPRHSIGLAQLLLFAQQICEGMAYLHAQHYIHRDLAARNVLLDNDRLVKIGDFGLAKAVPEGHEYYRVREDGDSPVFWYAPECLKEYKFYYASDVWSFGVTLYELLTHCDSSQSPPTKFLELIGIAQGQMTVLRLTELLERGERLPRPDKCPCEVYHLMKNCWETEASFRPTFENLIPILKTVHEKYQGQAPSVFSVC
Method in brief: as §1

JAK2 = JAK2 (Homo sapiens (Human), UniProt O60674); experiment: Biochemical JAK2 kinase assay (LanthaScreen)
Chain of JAK2 (O60674 whole entry): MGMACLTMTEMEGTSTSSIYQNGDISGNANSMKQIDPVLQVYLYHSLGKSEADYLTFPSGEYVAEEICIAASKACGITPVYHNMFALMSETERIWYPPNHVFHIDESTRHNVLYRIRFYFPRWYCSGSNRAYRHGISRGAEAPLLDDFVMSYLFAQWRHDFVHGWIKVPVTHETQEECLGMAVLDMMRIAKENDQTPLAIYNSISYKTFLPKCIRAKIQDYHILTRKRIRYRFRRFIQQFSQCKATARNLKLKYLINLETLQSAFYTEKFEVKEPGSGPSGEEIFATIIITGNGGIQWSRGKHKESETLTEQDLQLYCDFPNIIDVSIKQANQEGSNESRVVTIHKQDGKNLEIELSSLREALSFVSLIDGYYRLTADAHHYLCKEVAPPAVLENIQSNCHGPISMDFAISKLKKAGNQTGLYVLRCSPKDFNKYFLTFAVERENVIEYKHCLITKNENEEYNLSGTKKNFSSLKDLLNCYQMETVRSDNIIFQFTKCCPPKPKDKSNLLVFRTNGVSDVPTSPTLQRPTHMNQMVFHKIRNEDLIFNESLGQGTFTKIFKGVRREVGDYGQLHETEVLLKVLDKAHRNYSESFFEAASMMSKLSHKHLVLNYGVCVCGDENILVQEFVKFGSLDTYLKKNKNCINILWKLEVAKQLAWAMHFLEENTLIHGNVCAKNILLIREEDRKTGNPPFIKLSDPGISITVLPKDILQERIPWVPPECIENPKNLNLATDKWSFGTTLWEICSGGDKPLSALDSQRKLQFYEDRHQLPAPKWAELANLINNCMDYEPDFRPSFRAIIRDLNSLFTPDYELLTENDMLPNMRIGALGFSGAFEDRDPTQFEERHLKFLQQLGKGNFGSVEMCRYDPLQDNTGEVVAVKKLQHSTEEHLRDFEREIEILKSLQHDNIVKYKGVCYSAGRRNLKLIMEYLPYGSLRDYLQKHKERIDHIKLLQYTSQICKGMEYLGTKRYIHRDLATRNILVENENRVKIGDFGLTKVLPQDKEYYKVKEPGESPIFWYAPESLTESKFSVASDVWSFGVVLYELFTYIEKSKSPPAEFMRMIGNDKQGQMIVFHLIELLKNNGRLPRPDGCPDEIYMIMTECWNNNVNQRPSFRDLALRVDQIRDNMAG
Method in brief: as §1

JAK3 = JAK3 (Homo sapiens (Human), UniProt P52333); experiment: Biochemical JAK3 kinase assay (LanthaScreen)
Chain of JAK3 (P52333 whole entry): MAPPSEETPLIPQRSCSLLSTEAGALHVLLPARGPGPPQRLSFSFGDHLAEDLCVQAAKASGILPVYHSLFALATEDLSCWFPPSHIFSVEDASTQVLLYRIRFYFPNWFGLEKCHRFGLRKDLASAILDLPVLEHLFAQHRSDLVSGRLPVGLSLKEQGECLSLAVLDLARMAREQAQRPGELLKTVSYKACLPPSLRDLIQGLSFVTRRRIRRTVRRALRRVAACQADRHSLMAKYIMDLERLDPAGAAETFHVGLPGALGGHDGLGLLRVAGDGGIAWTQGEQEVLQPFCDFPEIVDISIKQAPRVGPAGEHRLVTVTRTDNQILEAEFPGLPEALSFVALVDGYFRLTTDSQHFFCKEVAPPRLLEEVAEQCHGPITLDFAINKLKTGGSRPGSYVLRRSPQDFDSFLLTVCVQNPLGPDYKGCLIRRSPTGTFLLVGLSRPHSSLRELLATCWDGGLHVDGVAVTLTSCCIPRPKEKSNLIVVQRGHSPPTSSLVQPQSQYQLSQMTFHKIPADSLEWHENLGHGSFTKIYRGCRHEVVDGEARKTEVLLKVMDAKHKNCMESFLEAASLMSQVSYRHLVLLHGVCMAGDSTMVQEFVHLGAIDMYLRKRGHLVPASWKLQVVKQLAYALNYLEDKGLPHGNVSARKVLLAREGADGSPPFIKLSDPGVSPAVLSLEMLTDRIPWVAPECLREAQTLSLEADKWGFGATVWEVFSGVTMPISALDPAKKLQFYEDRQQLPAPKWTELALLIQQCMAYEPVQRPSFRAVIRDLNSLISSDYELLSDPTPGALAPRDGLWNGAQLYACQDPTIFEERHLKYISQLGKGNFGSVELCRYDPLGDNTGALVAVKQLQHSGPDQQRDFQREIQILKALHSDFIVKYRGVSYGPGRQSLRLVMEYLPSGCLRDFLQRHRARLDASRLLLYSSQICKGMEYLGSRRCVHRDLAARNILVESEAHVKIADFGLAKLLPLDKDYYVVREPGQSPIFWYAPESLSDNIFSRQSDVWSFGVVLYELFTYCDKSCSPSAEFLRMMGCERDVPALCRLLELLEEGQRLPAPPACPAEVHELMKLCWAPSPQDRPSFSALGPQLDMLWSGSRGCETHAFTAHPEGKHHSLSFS
Method in brief: as §1

[1] = system: IL-2 stimulated STAT5 phosphorylation in Tall-1 human T cell line (JAK3); experiment: Cellular JAK3 potency assay: inhibition of IL-2 stimulated pSTAT5 in Tall-1 T cells; format: cell-based
Method in brief: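 AlphaLISA SureFire Ultra measures STAT5 Tyr694/699 phosphorylation in lysed Tall-1 human T cells. Cells were exposed to compound for 1 h at 37 °C before a 30 min IL-2 challenge (300 ng/ml final). Values are pIC50 means with standard deviation from signal-versus-concentration curves.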

[2] = selectivity JAK3 over JAK1, difference of pKi
[3] = IL-2 stimulated pSTAT5, Tall-1 T cells

Chain of JAK1 (P23458 whole entry): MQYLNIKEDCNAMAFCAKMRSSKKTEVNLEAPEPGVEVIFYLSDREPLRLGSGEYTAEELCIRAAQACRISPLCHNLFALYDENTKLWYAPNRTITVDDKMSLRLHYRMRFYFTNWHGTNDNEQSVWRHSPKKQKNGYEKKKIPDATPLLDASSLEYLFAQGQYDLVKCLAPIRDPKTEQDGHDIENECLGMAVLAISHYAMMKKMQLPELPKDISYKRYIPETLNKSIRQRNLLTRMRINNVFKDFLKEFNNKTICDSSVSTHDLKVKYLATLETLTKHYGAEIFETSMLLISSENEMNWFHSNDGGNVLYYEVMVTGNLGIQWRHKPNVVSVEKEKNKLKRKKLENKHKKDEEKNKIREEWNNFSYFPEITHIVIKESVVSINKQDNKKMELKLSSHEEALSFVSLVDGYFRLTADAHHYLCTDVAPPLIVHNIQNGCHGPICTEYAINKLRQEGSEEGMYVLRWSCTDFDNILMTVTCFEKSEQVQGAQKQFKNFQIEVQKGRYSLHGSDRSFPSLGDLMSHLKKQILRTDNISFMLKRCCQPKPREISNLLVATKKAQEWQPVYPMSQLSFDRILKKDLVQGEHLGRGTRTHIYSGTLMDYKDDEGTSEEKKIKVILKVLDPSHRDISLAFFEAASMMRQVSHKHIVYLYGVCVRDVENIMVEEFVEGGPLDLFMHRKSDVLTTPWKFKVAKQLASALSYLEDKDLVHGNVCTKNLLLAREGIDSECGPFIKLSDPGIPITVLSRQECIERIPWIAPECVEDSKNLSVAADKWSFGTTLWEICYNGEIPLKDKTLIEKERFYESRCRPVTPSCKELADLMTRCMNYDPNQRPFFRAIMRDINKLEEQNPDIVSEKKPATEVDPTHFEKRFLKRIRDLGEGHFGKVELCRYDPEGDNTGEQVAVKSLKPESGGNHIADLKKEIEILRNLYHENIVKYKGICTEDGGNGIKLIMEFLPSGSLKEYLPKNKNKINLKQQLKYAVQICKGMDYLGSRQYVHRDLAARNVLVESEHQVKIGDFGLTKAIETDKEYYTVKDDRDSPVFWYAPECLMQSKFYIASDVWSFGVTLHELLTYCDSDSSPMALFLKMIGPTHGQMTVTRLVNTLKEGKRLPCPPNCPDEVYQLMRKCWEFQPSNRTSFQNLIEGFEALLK

Row | Structure (SMILES) | JAK 1 (pKi) (JAK1) | Tyk 2 (pKi) (Tyk2) | JAK 2 (pKi) (JAK2) | JAK 3 (pKi) (JAK3) | JAK3 (pKi)-JAK1 (pKi) (JAK3; selectivity, difference of pKi values) | Tall-1 (pIC50) ([1]; IL-2 stimulated pSTAT5 in Tall-1 T cells) | JAK3 (pKi)-JAK1 (pKi) (JAK3; [2]) | Tall-1 (pIC50) [1, 3]
1 | C=CC(=O)N1CC(C(C)(C)Cn2c(=O)ccc3cnc(Nc4ccc(N5CCN(C)CC5)cc4)nc32)C1 [Example 246] | E (E represents a pKi value of 7 or below (Ki of 100 nM or above)) | E (E represents a pKi value of 7 or below (Ki of 100 nM or above)) | E (E represents a pKi value of 7 or below (Ki of 100 nM or above)) | B (B represents pKi value between 9 and 10 (Ki between 1 nM and 0.1 nM)) | A (A represents a value of 3 or above) | B (B represents a pC50 value between 6.7 (included) and 7.5 (IC50 between 200 nM and 32 nM)) | – | –
2 | C=CC(=O)N1CC(CCn2c(=O)ccc3cnc(Nc4ccc(N(C)Cc5ccccc5)cc4)nc32)C1 [Example 225] | E (E represents a pKi value of 7 or below (Ki of 100 nM or above)) | E (E represents a pKi value of 7 or below (Ki of 100 nM or above)) | E (E represents a pKi value of 7 or below (Ki of 100 nM or above)) | B (B represents pKi value between 9 and 10 (Ki between 1 nM and 0.1 nM)) | – | – | A (A represents a value of 3 or above) | C (C represents a pIC50 value between 6 and 6.7 (IC50 between 1 μM and 200 nM))
3 | C=CC(=O)N1CC(CCn2c(=O)ccc3cnc(Nc4ccc(N5CCN(C)CC5)c(C)c4)nc32)C1 [Example 166] | E (E represents a pKi value of 7 or below (Ki of 100 nM or above)) | E (E represents a pKi value of 7 or below (Ki of 100 nM or above)) | E (E represents a pKi value of 7 or below (Ki of 100 nM or above)) | A (A represents a pKi value≥10 (Ki≤0.1 nM)) | – | – | A (A represents a value of 3 or above) | A (A represents a pIC50 value≥7.5 (IC50≤32 nM))
4 | C=CC(=O)N1CC(CCn2c(=O)ccc3cnc(Nc4ccc(N5CCN(CC)CC5)cc4)nc32)C1 [Example 114] | E (E represents a pKi value of 7 or below (Ki of 100 nM or above)) | E (E represents a pKi value of 7 or below (Ki of 100 nM or above)) | E (E represents a pKi value of 7 or below (Ki of 100 nM or above)) | A (A represents a pKi value≥10 (Ki≤0.1 nM)) | – | – | A (A represents a value of 3 or above) | A (A represents a pIC50 value≥7.5 (IC50≤32 nM))
5 | C=CC(=O)N1CCN(CCn2c(=O)ccc3cnc(Nc4ccc(N5CCN(S(C)(=O)=O)CC5)cc4)nc32)[C@@H](C)C1 [Example 176] | E (E represents a pKi value of 7 or below (Ki of 100 nM or above)) | E (E represents a pKi value of 7 or below (Ki of 100 nM or above)) | E (E represents a pKi value of 7 or below (Ki of 100 nM or above)) | A (A represents a pKi value≥10 (Ki≤0.1 nM)) | – | – | A (A represents a value of 3 or above) | B (B represents a pC50 value between 6.7 (included) and 7.5 (IC50 between 200 nM and 32 nM))
6 | C=CC(=O)N1CCN(CCn2c(=O)ccc3cnc(Nc4ccc(N5CCN(C(=O)COC)CC5)cc4)nc32)CC1 [Example 144] | E (E represents a pKi value of 7 or below (Ki of 100 nM or above)) | E (E represents a pKi value of 7 or below (Ki of 100 nM or above)) | E (E represents a pKi value of 7 or below (Ki of 100 nM or above)) | A (A represents a pKi value≥10 (Ki≤0.1 nM)) | – | – | A (A represents a value of 3 or above) | B (B represents a pC50 value between 6.7 (included) and 7.5 (IC50 between 200 nM and 32 nM))
7 | C=CC(=O)N1CC(CCn2c(=O)ccc3cnc(Nc4ccc(N5CCSCC5)c(F)c4)nc32)C1 [Example 53] | E (E represents a pKi value of 7 or below (Ki of 100 nM or above)) | E (E represents a pKi value of 7 or below (Ki of 100 nM or above)) | E (E represents a pKi value of 7 or below (Ki of 100 nM or above)) | B (B represents pKi value between 9 and 10 (Ki between 1 nM and 0.1 nM)) | – | – | A (A represents a value of 3 or above) | B (B represents a pC50 value between 6.7 (included) and 7.5 (IC50 between 200 nM and 32 nM))
8 | C=CC(=O)N1CC(C(C)Cn2c(=O)ccc3cnc(Nc4ccc(N5CCN(C)CC5)cc4)nc32)C1 (stereo not drawn) [Example 234] | E (E represents a pKi value of 7 or below (Ki of 100 nM or above)) | E (E represents a pKi value of 7 or below (Ki of 100 nM or above)) | E (E represents a pKi value of 7 or below (Ki of 100 nM or above)) | B (B represents pKi value between 9 and 10 (Ki between 1 nM and 0.1 nM)) | – | – | A (A represents a value of 3 or above) | B (B represents a pC50 value between 6.7 (included) and 7.5 (IC50 between 200 nM and 32 nM))
